Results: patent publication US11208387B2, “Macrocyclic broad spectrum antibiotics” (Genentech, Inc., priority 2019, dated 2021)
≈ marks a conversion by molar mass, not a printed value. Read-outs that look alike come from different tables or passages of the source.

How the values were obtained:
[1] = system: Acinetobacter baumannii ATCC 17978; experiment: Serum MIC, broth micro-dilution; type: cell-based
How it was run: (§1)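 CLSI broth micro-dilution MIC run in 50% v/v cation-adjusted Mueller Hinton II broth plus 50% v/v mouse serum. Compounds were serially 2-fold diluted (10 concentrations) from a top concentration of 64, 4, 0.5 or 0.13 μg/mL; inoculum at final OD600 0.0005, incubated 35° C for 22 hours.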

[2] = system: Escherichia coli strain ATCC 25922; experiment: Serum MIC, broth micro-dilution; type: cell-based; details: read-out: E. coli 25922 Serum MIC
How it was run: as §1

[3] = system: Klebsiella pneumoniae ATCC 700603; experiment: Serum MIC, broth micro-dilution; type: cell-based
How it was run: as §1

[4] = system: Pseudomonas aeruginosa PA01; experiment: Serum MIC, broth micro-dilution; type: cell-based; details: for MIC: Pseudomonas aeruginosa, PA01, read-out: P. aeruginosa 01 Serum MIC
How it was run: as §1

[5] = system: isolated liver mitochondria; experiment: Mitochondrial oxygen consumption rate (OCR) assay; type: biochemical, Sprague-Dawley rats; details: isolated rat liver mitochondria, state 3 (S3) respiration
From the text: Male Sprague-Dawley rats (8-10 weeks of age) were euthanized with an overdose of carbon dioxide. The liver was rapidly excised and placed in ice-cold phosphate-buffered saline (PBS) before isolation process. Mitochondria were isolated using the MitoCheck® Mitochondrial Isolation Kit (Cayman Chemical #701010, Ann Arbor, Mich.) according to manufacturer's instructions. In brief, approximately 10-14 grams of liver tissues were finely minced using a pair of scissors, and washed repeatedly with ice-cold PBS, followed by Mito Isolation Buffer. The minced tissues were homogenized with 30 ml Mito Homogenization Buffer in 40 ml dounce homogenizer and a smooth glass grinder. The homogenate was split into two clean 30 ml polycarbonate tubes and centrifuged at 1,000×g, 4° C., for 3 minutes. The supernatant was subjected to further centrifugation at 10,000×g, 4° C., for 10 minutes. The supernatant was discarded and mitochondrial pellet was suspended in Mito Isolation Buffer using a glass stirring rod and stored on ice until use. Protein concentration of mitochondria was determined using a bicinchoninic acid protein assay kit (Thermo Scientific, Waltham, Mass.).
Oxygen consumption was monitored as essentially described by Will et al., “Analysis of mitochondrial function using phosphorescent oxygen-sensitive probes,” Nature Protocols Vol. 1(6) (2006) 2563. Briefly, isolated mitochondria (50 μg mitochondrial proteins/state 3 (S3) of mitochondrial respiration for inhibitor identification, 100 μg/S2 for uncoupler identification) were incubated with compounds in 25 μl of Measurement Buffer (MB: 250 mM sucrose, 15 mM KCl, 1 mM EGTA, 5 mM MgCl2, 30 mM K2HPO4, pH 7.4) including 1% DMSO on ice for 1 hour, then mixed with 25 μl of substrate mixture including an oxygen-sensitive phosphorescent dye (MitoXpress Xtra, Agilent, Santa Clara, Calif.), glutamate (25 mM, G1626, Sigma, St. Louis, Mo.), malate (25 mM, M6413, Sigma), ADP (3.3 mM, A2754, Sigma, only for S3 of mitochondrial respiration), Fatty acid free BSA (0.1%, A0281, Sigma), and a complex II-specific inhibitor TTFA (2 μM, T27006, Sigma for the assessment of complex I-mitochondrial respiration with glutamate/malate) in a black wall/clear bottom 384-well plate. The mixtures were covered with HS mineral oil (Agilent) using the Viaflo 384-channel pipette (Integra, Hudson, N.H.). Oxygen consumption was measured for 30 min at 30° C. using a spectrofluorimeter (FLUOstar Omega, BMG Labtech, Cary, N.C.). In S3, DMSO vehicle control and antimycin A (10 μM) were used to define 0% and 100% inhibition. In S2, DMSO vehicle and FCCP (0.5-1 μM) was used to define 0% and 100% uncoupling, respectively. Area under curve typically in a range of 0-12 min (S3) or 0-24 min (S2) was used for calculations. IC50 or UC50 (uncoupling concentration), a concentration that causes 50% of inhibition or maximal (uncoupling) activation of oxygen consumption, was used to evaluate experimental quality. Data were presented as μM (per 50 μg (S3) or 100 μg (S2) mitochondrial proteins). Compounds with IC50: <100 μM (S3) and/or UC50: <200 μM (S2) were considered as high-risk on mitochondrial toxicity. Compounds with 25-50% changes in inhibition and/or uncoupling were categorized as medium-risk, since compounds with >25% changes are considered as responders.
Toxicity associated with mitochondrial dysfunction has presented a problem for promising potential antibiotics as we as other types of therapeutics. The mitochondrial oxygen consumption rate (OCR) assay is considered a reliable indicator of potential internal organ toxicity issues that may occur with powerful antibiotics. The carboxylate compounds of the invention show unexpected lower toxicity than prior art “glycine nitrile” arylomycin analogs (see, e.g., WO 2018/149419) in the mitochondrial oxygen consumption rate (OCR) assay.

[6] = Acinetobacter baumannii, ATCC17978, 50% v/v mouse serum, compounds of Table 1, Table 7, read-out: A. baumanii 17978 Serum MIC
[7] = Escherichia coli, ATCC25922, 50% v/v mouse serum, compounds of Table 1, Table 7
[8] = Klebsiella pneumoniae, ATCC700603, 50% v/v mouse serum, compounds of Table 1, Table 7, read-out: K. pneumoniae 700603 Serum MIC
[9] = 50% v/v mouse serum, compounds of Table 1, Table 7
[10] = Acinetobacter baumannii, ATCC17978, 50% v/v mouse serum in Mueller Hinton II cation adjusted Broth, 35° C., 22 hours, Table 4, read-out: A. baumanii 17978 Serum MIC
[11] = Acinetobacter baumannii, ATCC17978, 50% v/v mouse serum in Mueller Hinton II cation adjusted Broth, 35° C., 22 hours, Table 5, read-out: Acinetobacter baumanii 17978 Serum MIC
[12] = Escherichia coli, ATCC25922, 50% v/v mouse serum in Mueller Hinton II cation adjusted Broth, 35° C., 22 hours, Table 4
[13] = Klebsiella pneumoniae, ATCC700603, 50% v/v mouse serum in Mueller Hinton II cation adjusted Broth, 35° C., 22 hours, Table 4, read-out: K pneumoniae 700603 Serum MIC
[14] = 50% v/v mouse serum in Mueller Hinton II cation adjusted Broth, 35° C., 22 hours, Table 4

| SMILES | MIC [1, 10] | MIC [1, 11] | MIC [2, 12] | MIC [3, 13] | MIC [4, 14] | other results |
| --- | --- | --- | --- | --- | --- | --- |
| Cc1nc(-c2ccc(C(C)(C)C)cc2)nc(C)c1C(=O)N[C@@H](CCN)C(=O)N(C)[C@@H]1C(=O)N[C@@H](C)C(=O)N[C@H](C(=O)NCC#N)Cc2ccc(O)c(c2)-c2cc1ccc2OCCN (racemic) [Example 254] | – | – | – | – | – | MIC [1, 6]: 9.3 µM (≈ 8.01 µg/mL); MIC [2, 7]: 0.19 µM (≈ 0.164 µg/mL); MIC [3, 8]: 0.73 µM (≈ 0.629 µg/mL); MIC [4, 9]: 13 µM (≈ 11.2 µg/mL); IC50 ([5]; compounds of Table 1, Table 6): 20 µM |
| Cc1nc(-c2ccc(C(C)(C)C)cc2)nc(N)c1C(=O)N[C@@H](CNS(N)(=O)=O)C(=O)N(C)[C@@H]1C(=O)N[C@@H](C)C(=O)N[C@H](C(=O)O)Cc2ccc(OC[C@H](O)CN)c(c2)-c2cc1cc(OC[C@H](O)CN)c2O [Example 2, (8S,11S,14S)-18-hydroxy-11-methyl-14-[methyl-[(2S)-2-[[4-amino-2-(4-tert-butylphenyl)-6-methyl-pyrimidine-5-carbonyl]amino]-3-(sulfamoylamino)-propanoyl]amino]-10,13-dioxo-3,17-bis[(2R)-3-amino-2-hydroxy-propoxy]-9,12-diazatricyclo-[13.3.1.12,6]icosa-1(18),2(20),3,5,15(19), 16-hexaene-8-carboxylic acid] | 11 µM (≈ 11.1 µg/mL) | 11 µM (≈ 11.1 µg/mL) | 0.5 µM (≈ 0.504 µg/mL) | 0.5 µM (≈ 0.504 µg/mL) | 3.3 µM (≈ 3.33 µg/mL) | IC50 ([5]; glutamate/malate, Table 3): 261 µM |
| Cc1nc(-c2ccc(C3(C)CC3)cc2)ncc1C(=O)N[C@@H](CCN)C(=O)N(C)[C@@H]1C(=O)N[C@@H](C)C(=O)N[C@H](C(=O)O)Cc2ccc(OC[C@@H](O)CN)c(c2)-c2cc1cc(OC[C@@H](O)CN)c2O [Example 73, (8S,11S,14S)-3,17-bis[(2S)-3-amino-2-hydroxy-propoxy]-14-[[(2S)-4-amino-2-[[4-methyl-2-[4-(1-methylcyclopropyl)-phenyl]pyrimidine-5-carbonyl]amino]-butanoyl]-methyl-amino]-18-hydroxy-11-methyl-10,13-dioxo-9,12-diazatri-cyclo-[13.3.1.12,6]icosa-1(19),2(20),3,5,15,17-hexaene-8-carboxylic acid] | 16 µM (≈ 14.8 µg/mL) | 16 µM (≈ 14.8 µg/mL) | 0.38 µM (≈ 0.352 µg/mL) | 0.25 µM (≈ 0.232 µg/mL) | 64 µM (≈ 59.3 µg/mL) | – |
| COc1c(OC[C@H](O)CN)cc2cc1-c1cc(ccc1OC[C@H](O)CN)C[C@@H](C(=O)O)NC(=O)[C@H](C)NC(=O)[C@H]2N(C)C(=O)[C@H](CCN)NC(=O)c1cnc(-c2ccc(C3(C)CC3)cc2)nc1C [Example 74, (8S,11S,14S)-3,17-bis[(2R)-3-amino-2-hydroxy-propoxy]-14-[[(2S)-4-amino-2-[[4-methyl-2-[4-(1-methylcyclopropyl)-phenyl]pyrimidine-5-carbonyl]amino]-butanoyl]-methyl-amino]-18-methoxy-11-methyl-10,13-dioxo-9,12-diazatri-cyclo[13.3.1.12,6]icosa-1(18),2(20),3,5,15(19), 16-hexaene-8-carboxylic acid] | 32 µM (≈ 30.1 µg/mL) | 32 µM (≈ 30.1 µg/mL) | 0.5 µM (≈ 0.47 µg/mL) | 0.5 µM (≈ 0.47 µg/mL) | 64 µM (≈ 60.2 µg/mL) | – |
| COc1c(OC[C@H](O)CN)cc2cc1-c1cc(ccc1OC[C@H](O)CN)C[C@@H](C(=O)O)NC(=O)[C@H](C)NC(=O)[C@H]2N(C)C(=O)[C@H](CNS(N)(=O)=O)NC(=O)c1c(C)nc(-c2ccc(C(C)(C)C)cc2)nc1N [Example 75, (8S,11S,14S)-14-[[(2S)-2-[[4-amino-2-(4-tert-butylphenyl)-6-methyl-pyrimidine-5-carbonyl]amino]-3-(sulfamoylamino)-propanoyl]-methyl-amino]-3,17-bis[(2R)-3-amino-2-hydroxy-propoxy]-18-methoxy-11-methyl-10,13-dioxo-9,12-diazatri-cyclo[13.3.1.12,6]icosa-1(18),2(20),3,5,15(19), 16-hexaene-8-carboxylic acid] | – | – | – | – | – | MIC ([1]; 50% v/v mouse serum in Mueller Hinton II cation adjusted Broth, 35° C., 22 hours, Table 4, read-out: A. baumanii 17978 Serum MIC): 16 µM (≈ 16.4 µg/mL); MIC ([1]; 50% v/v mouse serum in Mueller Hinton II cation adjusted Broth, 35° C., 22 hours, Table 5, read-out: Acinetobacter baumanii 17978 Serum MIC): 16 µM (≈ 16.4 µg/mL); MIC [2, 14]: 0.75 µM (≈ 0.767 µg/mL); MIC ([3]; 50% v/v mouse serum in Mueller Hinton II cation adjusted Broth, 35° C., 22 hours, Table 4, read-out: K. pneumoniae 700603 Serum MIC): 0.5 µM (≈ 0.511 µg/mL); P. aeruginosa 01 Serum MIC [4, 14]: 8 µM |
| Cc1nc(-c2ccc(C(C)(C)C)cc2)nc(N)c1C(=O)N[C@@H](CCNS(N)(=O)=O)C(=O)N(C)[C@@H]1C(=O)N[C@@H](C)C(=O)N[C@H](C(=O)O)Cc2ccc(OC[C@H](O)CN)c(c2)-c2cc1cc(OC[C@H](O)CN)c2O [Example 76, (8S,11S,14S)-14-[[(2S)-2-[[4-amino-2-(4-tert-butylphenyl)-6-methyl-pyrimidine-5-carbonyl]amino]-4-(sulfamoylamino)-butanoyl]-methyl-amino]-3,17-bis[(2R)-3-amino-2-hydroxy-propoxy]-18-hydroxy-11-methyl-10,13-dioxo-9,12-diazatricyclo-[13.3.1.12,6]icosa-1(18),2(20),3,5,15(19), 16-hexaene-8-carboxylic acid] | 24 µM (≈ 24.5 µg/mL) | 24 µM (≈ 24.5 µg/mL) | 2 µM (≈ 2.04 µg/mL) | 1.5 µM (≈ 1.53 µg/mL) | 16 µM (≈ 16.4 µg/mL) | – |
| Cc1nc(-c2ccc(C(C)(C)C)cc2)nc(C)c1C(=O)N[C@@H](CCN)C(=O)N(C)[C@@H]1C(=O)N[C@@H](C)C(=O)N[C@H](C(=O)NCC#N)Cc2ccc(O)c(c2)-c2cc1cc(OCCN)c2OCCN [Example 633] | – | – | – | – | – | MIC [1, 6]: 5 µM (≈ 4.6 µg/mL); MIC [2, 7]: 0.063 µM (≈ 0.058 µg/mL); MIC [3, 8]: 0.063 µM (≈ 0.058 µg/mL); MIC [4, 9]: 4 µM (≈ 3.68 µg/mL) |
